From patent US8969573B2, “Compounds for the inhibition of cellular proliferation” (President and Fellows of Harvard College, priority 2010, dated 2015) come the findings set out here.

The test system of one test is CRL2813 human melanoma. Put plainly: SRB assay (inhibition of cell proliferation). It counts as cell-based. The source says:
(§1) A sulfur rhodamine B (SRB) assay was used to determine the extent of inhibition of cell proliferation as a measure of the anti-cancer activity of compounds of the present disclosure. The reagent SRB binds to cellular proteins and absorbs light proportionally to the cellular protein content, which is a surrogate marker for the number of cells. According to aspects of the present disclosure, the assay can be used to with any cancer cell line including breast cancer cell lines, prostate cancer cell lines, melanoma cell lines, lung cancer cell lines or any other cell lines of the cancers described herein.
(§2) The following protocol was used to determine the growth characteristics of certain cell lines CRL2351 human breast cancer and CRL2813 human melanoma from which cell lines having doubling times less than 48 hours were selected for growth inhibition experiments. […] The following materials were used in addition to the cancel cell lines: complete (5% fetal calf serum added) tissue culture media, 96-well tissue culture plates, Sulforhodamine B dye (SRB, 0.57% w/w), […] (TCA, 10%), acetic acid glacial (1%) and 10 mM Tris base. The cells were prepared and plated. Cancer cells were grown to 80% confluency in an incubator. The cells were trypsinized per standard protocol or as needed for each cell line. The trypsin was neutralized, cells dissociated and counted. Each cell line was plated at a density of 500, 1000 and 3000 cells per well (six wells each) in five separate plates. The cells were then returned to the incubator. One plate was then removed each day starting day one after plating. 100 μl of 10% TCA was then added and the cells were fixed at 4° C. until all the cells were fixed. […] The cell growth for vehicle treatment is considered to be 100%. The optical density was then measured and plotted for each starting cell number and cell line against time. The percent cell growth inhibition was calculated as 100 minus the % of control cell growth. The % of control cell growth=((mean OD sample−Mean OD day 0)/(mean OD vehicle−Mean OD day 0))*100.

Test [1] concerns CRL2351 human breast cancer. Briefly: SRB assay (inhibition of cell proliferation). It counts as cell-based. As to conditions: CRL2351 human breast cancer cells.
Description: as §1, §2
(In SRB staining, fixed cells bind dye roughly in proportion to their protein.)

The target of another test is eIF4E/eIF4G interaction (Homo sapiens, UniProt P06730). Put plainly: Fluorescent polarization assay. As to conditions: FITC eIF4G peptide and recombinant eIF4E, ratio to Z (4EGI-1 = 1). It counts as binding. The protocol:
The difference between the two measurement yields net polarization which is considered full signal of the assay (100% control). […] The activity of compound at each concentration is determined by comparing the fluorescent polarization (FP) signal in the presence of compound to the control (no compound) value. The percent inhibition is =100-((FP compound/FP control)*100).

Setting [2] is: CRL2813 human melanoma cells, summary table, read-out: IC50 [μM} CRL2813.
The mark [3] stands for this setting: summary table, read-out: IC50 [μM} CRL2351.
The mark [4] stands for this setting: CRL2813 human melanoma cells, Tables 1, 4, 5, read-out: SRB-IC50 (μM) 2813.
Where [5] appears, read: Tables 1, 4, 5, read-out: SRB-IC50 (μM) 2351.
Setting [6] is: Homo sapiens, CRL2813, CRL2813 human melanoma cells, summary table, read-out: IC50 [μM} CRL2813.
The mark [7] stands for this setting: Homo sapiens, summary table, read-out: IC50 [μM} CRL2351.

Where two headings read alike, the source gives them in different places.

Sequence of eIF4E/eIF4G interaction (P06730 whole entry): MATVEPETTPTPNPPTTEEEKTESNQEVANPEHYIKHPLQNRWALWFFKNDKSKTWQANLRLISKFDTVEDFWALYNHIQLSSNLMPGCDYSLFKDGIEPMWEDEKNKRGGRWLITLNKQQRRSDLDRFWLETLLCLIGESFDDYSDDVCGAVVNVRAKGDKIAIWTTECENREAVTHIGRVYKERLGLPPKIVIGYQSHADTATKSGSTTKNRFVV

In general, IC50 refers to the concentration that inhibits the measured activity by half. As for “2-(2-(6,7-dichloro-4,5-dihydronaphtho[1,2-d]thiazol-2-yl)hydrazono)-3-(2-nitrophenyl)propanoic acid [PC-163S]”, the IC50 (in the test on CRL2813 human melanoma (setting [2]); in test [1] (setting [3])) was 3 µM each time.
Take `O=C(O)C(Cc1ccccc1[N+](=O)[O-])=NNc1nc(-c2ccc(OCCCCCBr)cc2)cs1` (mixture of isomers) [KH148]: the concentration for half-maximal inhibition (IC50) in the test with CRL2813 human melanoma (setting [4]) is 0.8 µM; in test [1] (setting [5]) it was under 0.54 µM.
`O=C(O)C(Cc1ccccc1[N+](=O)[O-])=NNc1nc(-c2ccccc2OCCCCCBr)cs1` (single isomer, unassigned) [KH152-f]: the IC50 in the test with CRL2813 human melanoma (setting [4]) was under 1 µM; in test [1] (setting [5]), 2.4 µM.
As for `CCN(CC)c1ccc(-c2csc(N/N=C(\Cc3ccccc3[N+](=O)[O-])C(=O)O)n2)cc1` [KY-615F], the IC50 with CRL2813 human melanoma (setting [2]) is 18.8 µM; in test [1] (setting [3]), 5.7 µM.
Consider `O=C(O)C(Cc1ccccc1[N+](=O)[O-])=NNc1nc(-c2ccc(OCCCBr)cc2)cs1` (single isomer, unassigned) [KH147-f], for which the IC50 was 1.1 µM in the test on CRL2813 human melanoma (setting [4]) and 0.5 µM in test [1] (setting [5]).
As to `O=C(O)C(Cc1ccccc1[N+](=O)[O-])=NNc1nc(-c2ccccc2OCCBr)cs1` (single isomer, unassigned) [KH149-f], the IC50 (in the test with CRL2813 human melanoma (setting [4]); in test [1] (setting [5])) was 1 µM throughout.
On to `O=C(O)/C(Cc1ccccc1[N+](=O)[O-])=N\Nc1nc2c(s1)COc1c-2ccc(Cl)c1Cl` [PC-202S, 2-(2-(6,7-dichloro-4H-chromeno[4,3-d]thiazol-2-yl)hydrazono)-3-(2-nitrophenyl)propanoic acid], for which, in the test on CRL2813 human melanoma (setting [6]), the half-inhibitory concentration (IC50) came to 4.5 µM.
As to `O=C(O)C(Cc1ccccc1[N+](=O)[O-])=NNc1nc(-c2cccc(OCCBr)c2)cs1` (single isomer, unassigned) [KH153-f], the IC50 with CRL2813 human melanoma (setting [4]) is 8 µM; in test [1] (setting [5]) it was 13.2 µM.
As for `O=C(O)C(Cc1ccccc1[N+](=O)[O-])=NNc1nc(-c2ccc(Cl)c(Cl)c2)cs1` [Compound 4EGI-1, reference compound], the IC50 worked out at 1.3 µM in the test on CRL2813 human melanoma (Homo sapiens, CRL2813, CRL2813 human melanoma cells, Tables 1, 4, 5, read-out: SRB-IC50 (μM) 2813); 3.8 ± 1.06 µM in the test with CRL2813 human melanoma (setting [6]); 6.5 µM in test [1] (Homo sapiens, Tables 1, 4, 5, read-out: SRB-IC50 (μM) 2351); 5 ± 1.6 µM in test [1] (setting [7]).
As to `O=C(O)C(Cc1ccccc1[N+](=O)[O-])=NNc1nc(-c2cccc(OCCCCCBr)c2)cs1` (mixture of isomers) [KH156], the IC50 in the test on CRL2813 human melanoma (setting [4]) stood at 6 µM; in test [1] (setting [5]), 9.1 µM.
For `[N-]=[N+]=Nc1ccc(-c2csc(NN=C(Cc3ccccc3[N+](=O)[O-])C(=O)O)n2)cc1` [KH-8], at eIF4E/eIF4G interaction, the “Fp (ratio to Z)” value is 0.99.
With `COc1cc2c(cc1OC)-c1nc(N/N=C(/Cc3ccccc3[N+](=O)[O-])C(=O)O)sc1CC2` [PC-195S, (Z)-2-(2-(7,8-dimethoxy-4,5-dihydronaphtho[1,2-d]thiazol-2-yl)hydrazono)-3-(2-nitrophenyl) propanoic acid], the IC50 was found to be 7.5 µM in the test with CRL2813 human melanoma (setting [6]) and 4 µM in test [1] (setting [7]).
With `O=C(O)/C(Cc1ccccc1[N+](=O)[O-])=N\Nc1nc2c(s1)CSc1cc(Cl)c(Cl)cc1-2` [PC-218S], the results for the IC50 (in the test with CRL2813 human melanoma (setting [6]); in test [1] (setting [7])) were 3 µM and 5.5 µM, respectively.
Take `O=C(O)/C(Cc1ccccc1[N+](=O)[O-])=N\Nc1nc(-c2ccc(N3CCOCC3)c(Br)c2)cs1` [KH-287II-S]: the “Fp (ratio to Z)” value on eIF4E/eIF4G interaction worked out at 0.62.
Take `O=C(O)c1nn(-c2nc(-c3ccc(Cl)c(Cl)c3)cs2)c2ccc([N+](=O)[O-])cc12` [RYF-440]: the “Fp (ratio to Z)” value at eIF4E/eIF4G interaction was 1.3.
Take `O=C(O)C(Cc1ccccc1[N+](=O)[O-])=NNc1nc(-c2cccc(OCCCBr)c2)cs1` (single isomer, unassigned) [KH154-f]: the IC50 with CRL2813 human melanoma (setting [4]) stood at 0.7 µM; in test [1] (setting [5]) it was 3.5 µM.
For `O=C(O)C(Cc1ccccc1[N+](=O)[O-])=NNc1nc(-c2cccc(OCCCBr)c2)cs1` (single isomer, unassigned) [KH154-s], the 50% inhibitory concentration (IC50) in test [1] (setting [5]) is 1.5 µM.
In the case of `O=C(O)C(Cc1ccccc1[N+](=O)[O-])=NNc1nc(-c2cccc(OCCBr)c2)cs1` (single isomer, unassigned) [KH153-s], in test [1] (setting [5]), the IC50 was 14 µM.
As for `O=C(O)C(Cc1ccccc1[N+](=O)[O-])=NNc1nc(-c2ccc(Br)cc2)cs1` [KH-53S], on eIF4E/eIF4G interaction, the “Fp (ratio to Z)” value is listed as 0.61.
With `O=C(O)C(Cc1ccccc1[N+](=O)[O-])=NNc1nc(-c2ccccc2OCCCCCBr)cs1` (single isomer, unassigned) [KH152-s], the results for the IC50 (in the test with CRL2813 human melanoma (setting [4]); in test [1] (setting [5])) were 4.5 µM and 7.8 µM, respectively.
As to “2-(2-(6,7-dichloro-4,5-dihydronaphtho[1,2-d]thiazol-2-yl)hydrazono)-3-(2-nitrophenyl)propanoic acid [PC-163F]”, the IC50 (with CRL2813 human melanoma (setting [2]); in test [1] (setting [3])) was under 1 µM each time.
For `O=C(O)C(Cc1ccccc1[N+](=O)[O-])=NNc1nc(-c2ccc(OCCCCCOc3ccccc3)cc2)cs1` [KH-333S], the “Fp (ratio to Z)” value at eIF4E/eIF4G interaction amounted to 0.96.
For `O=C(O)/C(Cc1ccccc1[N+](=O)[O-])=N/Nc1nc2c(s1)CSc1c-2ccc(Cl)c1Cl` [PC-218F], the IC50 was 8 µM in the test on CRL2813 human melanoma (setting [6]) and under 1 µM in test [1] (setting [7]).
As to “2-(2-(7,8-dichloro-4H-chromeno[4,3-d]thiazol-2-yl)hydrazono)-3-(2-nitrophenyl)propanoic acid [PC-204S]”, the values for the IC50 (in the test on CRL2813 human melanoma (setting [2]); in test [1] (setting [3])) were 3 µM and under 1 µM, respectively.
On to `O=C(O)C(Cc1ccccc1[N+](=O)[O-])=NNc1nc(-c2ccc(OCCBr)cc2)cs1` (single isomer, unassigned) [KH146-f], for which the IC50 in the test on CRL2813 human melanoma (setting [4]) was 2.1 µM; in test [1] (setting [5]), under 0.54 µM.
As for `O=C(O)C(Cc1ccccc1[N+](=O)[O-])=NNc1nc(-c2ccc(OCCBr)cc2)cs1` (single isomer, unassigned) [KH146-s], the IC50 came to 14 µM in the test with CRL2813 human melanoma (setting [4]) and 14.5 µM in test [1] (setting [5]).
As to `O=C(O)C(Cc1ccccc1[N+](=O)[O-])=NNc1nc(-c2cccc(OCCCCBr)c2)cs1` (mixture of isomers) [KH155], the half-maximal inhibitory concentration (IC50) in the test with CRL2813 human melanoma (setting [4]) stood at 10.8 µM; in test [1] (setting [5]), 8.6 µM.
`O=C(O)C(Cc1ccccc1[N+](=O)[O-])=NNc1nc(-c2ccccc2OCCBr)cs1` (single isomer, unassigned) [KH149-s]: the half-maximal inhibitory concentration (IC50) is 11.5 µM in the test with CRL2813 human melanoma (setting [4]) and 6 µM in test [1] (setting [5]).
Take `O=C(O)C(Cc1ccccc1[N+](=O)[O-])=NNc1nc(-c2ccccc2OCCCBr)cs1` (mixture of isomers) [KH150]: the figures for the IC50 (in the test with CRL2813 human melanoma (setting [4]); in test [1] (setting [5])) were 0.9 µM and 2.8 µM, respectively.
As for `O=C(O)/C(Cc1ccccc1[N+](=O)[O-])=N/Nc1nc2c(s1)COc1c-2ccc(Cl)c1Cl` [PC-202F, 2-(2-(6,7-dichloro-4H-chromeno[4,3-d]thiazol-2-yl)hydrazono)-3-(2-nitrophenyl)propanoic acid], the IC50 in the test with CRL2813 human melanoma (setting [6]) is under 1 µM.
Turning to `O=C(O)C(Cc1ccccc1[N+](=O)[O-])=NNc1nc(-c2ccc(OCCCOc3ccc(Cl)cc3)cc2)cs1` [KH-332S], the “Fp (ratio to Z)” value at eIF4E/eIF4G interaction was 1.09.
As to “2-(2-(7,8-dichloro-4,5-dihydronaphtho[1,2-d]thiazol-2-yl)hydrazono)-3-(2-nitrophenyl)propanoic acid [PC-159S]”, the IC50 in the test with CRL2813 human melanoma (setting [2]) is 4 µM; in test [1] (setting [3]), 12.5 µM.
With `O=C(O)C(Cc1ccccc1[N+](=O)[O-])=NNc1nc(-c2ccc(OCCCBr)cc2)cs1` (single isomer, unassigned) [KH147-s], the values for the IC50 (with CRL2813 human melanoma (setting [4]); in test [1] (setting [5])) were 5.5 µM and 11.2 µM, respectively.
For the molecule `O=C(O)/C(Cc1ccccc1[N+](=O)[O-])=N/Nc1nc2c(s1)COc1cc(Cl)c(Cl)cc1-2` [PC-204F, 2-(2-(7,8-dichloro-4H-chromeno[4,3-d]thiazol-2-yl)hydrazono)-3-(2-nitrophenyl)propanoic acid], the IC50 in test [1] (setting [7]) is 2 µM.
